Measured values published in patent US20240025891A1 (Celgene Corporation, priority 2020, published 2024).

Test system: Onchocerca gutturosa adult male worms
Assay: Onchocerciasis in vitro screening model Onchocerca gutturosa (worm motility score and MTT/formazan colorimetry)
Conditions: Onchocerca gutturosa, read-out: O. gutt Act class

Structure (SMILES) | IC50 [nM]
Cc1cccnc1Nc1cnc(-c2ccc(OC3CCOCC3)cn2)s1 [Example 111, N-(3-methylpyridin-2-yl)-2-(5-(tetrahydro-2H-pyran-4-yloxy)pyridin-2-yl)thiazol-5-amine] | < 200
c1ccc(-c2csc(Nc3cc(-c4cccc5ccccc45)ccn3)n2)nc1 [Example 175, N-(4-(naphthalen-1-yl)pyridin-2-yl)-4-(pyridin-2-yl)thiazol-2-amine] | < 200
O=C(NCC(F)(F)F)C1CCCN(c2ccc(Nc3nc(-c4ccccn4)cs3)nc2)C1 (stereo not drawn) [Example 160, 1-(6-(4-(pyridin-2-yl)thiazol-2-ylamino)pyridin-3-yl)-N-(2,2,2-trifluoroethyl) piperidine-3-carboxamide] | < 200
c1ccc(-c2ccnc(Nc3cnc(-c4ccccn4)s3)c2)cc1 [Example 112, N-(4-phenylpyridin-2-yl)-2-(pyridin-2-yl)thiazol-5-amine] | 200 to 500
Cc1sc(Nc2cc(OC3CCOCC3)ccn2)nc1-c1ccccn1 [Example 205, 5-methyl-4-(pyridin-2-yl)-N-(4-(tetrahydro-2H-pyran-4-yloxy)pyridin-2-yl)thiazol-2-amine] | < 200
Cc1ccnc(Nc2nc(-c3ncccn3)cs2)c1 [Example 107, N-(4-methylpyridin-2-yl)-4-(pyrimidin-2-yl)thiazol-2-amine] | 500 to 5000
O=C(c1ccnc(Nc2nc(-c3ccccn3)cs2)c1)N1CCNCC1 [Example 144, piperazin-1-yl(2-(4-(pyridin-2-yl)thiazol-2-ylamino)pyridin-4-yl)methanone] | 200 to 500
CCc1ccc(Nc2nc(-c3ccccn3)cs2)nc1 [Example 123, N-(5-ethylpyridin-2-yl)-4-(pyridin-2-yl)thiazol-2-amine] | < 200
O=C(c1sc(Nc2cc(C(F)(F)F)ccn2)nc1-c1ccccn1)N1CCOCC1 [Example 199, morpholino(4-(pyridin-2-yl)-2-(4-(trifluoromethyl)pyridin-2-ylamino)thiazol-5-yl)methanone] | 500 to 5000
c1ccc(-c2csc(Nc3ccc(C4CCCC4)cn3)n2)nc1 [Example 138, N-(5-cyclopentyl-pyridin-2-yl)-4-(pyridin-2-yl)thiazol-2-amine] | < 200
c1ccc(-c2cccnc2Nc2nc(-c3ccccn3)cs2)cc1 [Example 125, N-(3-phenylpyridin-2-yl)-4-(pyridin-2-yl)thiazol-2-amine] | 500 to 5000
O=C(O)C1CCCN(c2ccc(Nc3nc(-c4ccccn4)cs3)nc2)C1 (stereo not drawn) [Example 157, 1-(6-(4-(pyridin-2-yl)thiazol-2-ylamino)pyridin-3-yl)piperidine-3-carboxylic acid] | 500 to 5000
O=C(NC1CC1)c1ccnc(Nc2nc(-c3ccccn3)cs2)c1 [Example 170, N-cyclopropyl-2-(4-(pyridin-2-yl)thiazol-2-ylamino) isonicotinamide] | < 200
Cc1ccnc(Nc2nc(-c3cc(Cl)ccn3)cs2)c1 [Example 223, 4-(4-chloropyridin-2-yl)-N-(4-methylpyridin-2-yl)thiazol-2-amine] | < 200
Cc1cccnc1Nc1cc(-c2ccc(OC3CCOCC3)cn2)nn1-c1ccccc1 [Example 234, 3-methyl-N-(1-phenyl-3-(5-(tetrahydro-2H-pyran-4-yloxy)pyridin-2-yl)-1H-pyrazol-5-yl)pyridin-2-amine] | 500 to 5000
O=C(NC1CCCC1)c1ccnc(Nc2nc(-c3ccccn3)cs2)c1 [Example 147, N-cyclopentyl-2-(4-(pyridin-2-yl)thiazol-2-ylamino) isonicotinamide] | < 200
CSc1ccc(-c2csc(Nc3ncccc3C)n2)nc1 [Example 80, N-(3-methylpyridin-2-yl)-4-(5-(methylthio)pyridin-2-yl)thiazol-2-amine] | < 200
Cc1ccnc(Nc2cc(-c3ncccc3C)nn2-c2ccccc2)c1 [Example 235, 4-methyl-N-(3-(3-methylpyridin-2-yl)-1-phenyl-1H-pyrazol-5-yl)pyridin-2-amine] | 500 to 5000
Cc1sc(Nc2cc(C(=O)NCC(F)(F)F)ccn2)nc1-c1ccc(OC2CCOCC2)cn1 [Example 106, 2-(5-methyl-4-(5-(tetrahydro-2H-pyran-4-yloxy)pyridin-2-yl)thiazol-2-ylamino)-N-(2,2,2-trifluoroethyl) isonicotinamide] | 200 to 500
FC(F)(F)c1ccnc(Nc2nc(-c3ccccn3)c(CN3CCOCC3)s2)c1 [Example 210, 5-(morpholino-methyl)-4-(pyridin-2-yl)-N-(4-(trifluoromethyl)pyridin-2-yl) thiazol-2-amine] | < 200
COc1ccc(-c2ncc(Nc3cc(OC(C)C)ccn3)s2)nc1 [Example 113, N-(4-isopropoxypyridin-2-yl)-2-(5-methoxypyridin-2-yl)thiazol-5-amine] | 500 to 5000
c1ccc(-c2csc(Nc3cc(C4CC4)ccn3)n2)nc1 [Example 176, N-(4-cyclopropyl-pyridin-2-yl)-4-(pyridin-2-yl)thiazol-2-amine] | < 200
CCOc1ccc(-c2csc(Nc3ccc(Cl)cn3)n2)nc1 [Example 85, N-(5-chloropyridin-2-yl)-4-(5-ethoxypyridin-2-yl)thiazol-2-amine] | 200 to 500
Cc1ccnc(Nc2cnc(-c3ncccc3C)s2)c1 [Example 114, 2-(3-methylpyridin-2-yl)-N-(4-methylpyridin-2-yl)thiazol-5-amine] | < 200
O=C(N1CCN(c2ccc(Nc3nc(-c4ccccn4)cs3)nc2)CC1)C1(C(F)(F)F)CC1 [Example 155, (4-(6-(4-(pyridin-2-yl)thiazol-2-ylamino)pyridin-3-yl)piperazin-1-yl)(1-(trifluoromethyl)cyclopropyl) methanone] | < 200
COc1ccc(Nc2nc(-c3ccccn3)cs2)nc1 [Example 218, N-(5-methoxypyridin-2-yl)-4-(pyridin-2-yl)thiazol-2-amine] | 200 to 500
Cc1sc(Nc2cc(C(F)(F)F)ccn2)nc1-c1ccccn1 [Example 162, 5-methyl-4-(pyridin-2-yl)-N-(4-(trifluoromethyl)pyridin-2-yl) thiazol-2-amine] | < 200
CCOc1ccc(-c2csc(Nc3ncc(C)cc3C)n2)nc1 [Example 88, N-(3,5-dimethylpyridin-2-yl)-4-(5-ethoxypyridin-2-yl)thiazol-2-amine] | < 200
COCCNC(=O)c1ccnc(Nc2nc(-c3ccccn3)cs2)c1 [Example 142, N-(2-methoxyethyl)-2-(4-(pyridin-2-yl)thiazol-2-ylamino) isonicotinamide] | 200 to 500
Cc1ccnc(Nc2nc(-c3cc(C)ccn3)cs2)c1 [Example 220, N,4-bis(4-methylpyridin-2-yl)thiazol-2-amine] | < 200
